PubChem BioAssay AID248 (DTP/NCI, 2004)
Values joined by “and” are separate entries in the source; they are usually repeats but may differ in a detail not shown here. Identical values can stand only once. Toxic doses and inconclusive results are not listed.

Test system: L1210 leukemia ip in BDF1 mice, survival T/C
Assay: NCI In Vivo Anticancer Drug Screen. Data for tumor model L1210 Leukemia (intraperitoneal) in B6D2F1 (BDF1) mice
Settings: endpoint: mean survival time, higher = longer survival
In short: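 Survival endpoint. Drug-treated group vs vehicle group, expressed as T divided by C. Tumor passaged by transplantation.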

[1] = dose: 100.0 mg/kg/injection, schedule: Q01DX001 (ip), vehicle: carboxymethylcellulose (CMC)
[2] = dose: 200.0 mg/kg/injection, schedule: Q01DX001 (ip), vehicle: carboxymethylcellulose (CMC)

Structure (SMILES): CCOC(=O)NP(=O)(N1CC1)N1CC1
- T/C (dose: 0.16 mg/kg/injection, schedule: Q#A X Z (ip), vehicle: saline): 100 % of control
- T/C (dose: 0.31 mg/kg/injection, schedule: Q#A X Z (ip), vehicle: saline): 100 % of control
- T/C (dose: 0.32 mg/kg/injection, schedule: Q01DX Z (im), vehicle: saline): 105 % of control
- T/C (dose: 0.32 mg/kg/injection, schedule: Q01DX Z (ip), vehicle: saline): 102 % of control
- T/C (dose: 0.62 mg/kg/injection, schedule: Q#A X Z (ip), vehicle: saline): 102 % of control
- T/C (dose: 0.63 mg/kg/injection, schedule: Q01DX Z (im), vehicle: saline): 105 % of control
- T/C (dose: 0.63 mg/kg/injection, schedule: Q01DX Z (ip), vehicle: saline): 98 % of control
- T/C (dose: 0.7 mg/kg/injection, schedule: Q01DX Z (ip), vehicle: carboxymethylcellulose (CMC)): 101 % of control
- T/C (dose: 0.9 mg/kg/injection, schedule: Q03DX006 (ip), vehicle: saline): 104 % of control
- T/C (dose: 1.25 mg/kg/injection, schedule: Q01DX Z (im), vehicle: saline): 104 % of control
- T/C (dose: 1.25 mg/kg/injection, schedule: Q01DX Z (ip), vehicle: saline): 105 % of control
- T/C (dose: 1.25 mg/kg/injection, schedule: Q01DX Z (oral), vehicle: saline): 100 % of control
- T/C (dose: 1.25 mg/kg/injection, schedule: Q#A X Z (ip), vehicle: saline): 121 % of control
- T/C (dose: 1.5 mg/kg/injection, schedule: Q01DX Z (ip), vehicle: carboxymethylcellulose (CMC)): 104 % of control
- T/C (dose: 1.9 mg/kg/injection, schedule: Q03DX006 (ip), vehicle: saline): 104 % of control
- T/C (dose: 2.2 mg/kg/injection, schedule: Q01DX001 (ip), vehicle: saline): 101 % of control and 107 % of control
- T/C (dose: 2.2 mg/kg/injection, schedule: Q07DX003 (ip), vehicle: saline): 105 % of control
- T/C (dose: 2.37 mg/kg/injection, schedule: Q01DX Z (ip), vehicle: carboxymethylcellulose (CMC)): 114 % of control
- T/C (dose: 2.5 mg/kg/injection, schedule: Q01DX Z (im), vehicle: saline): 107 % of control
- T/C (dose: 2.5 mg/kg/injection, schedule: Q01DX Z (ip), vehicle: saline): 107 % of control
- T/C (dose: 2.5 mg/kg/injection, schedule: Q01DX Z (oral), vehicle: saline): 107 % of control
- T/C (dose: 3.0 mg/kg/injection, schedule: Q01DX Z (ip), vehicle: carboxymethylcellulose (CMC)): 113 % of control
- T/C (dose: 3.8 mg/kg/injection, schedule: Q03DX006 (ip), vehicle: saline): 105 % of control
- T/C (dose: 4.4 mg/kg/injection, schedule: Q01DX001 (ip), vehicle: saline): 102 % of control
- T/C (dose: 4.4 mg/kg/injection, schedule: Q07DX003 (ip), vehicle: saline): 105 % of control
- T/C (dose: 5.0 mg/kg/injection, schedule: Q01DX006 (iv), vehicle: saline): 100 % of control
- T/C (dose: 5.0 mg/kg/injection, schedule: Q01DX Z (oral), vehicle: saline): 100 % of control
- T/C (dose: 5.0 mg/kg/injection, schedule: Q01DX Z (sc), vehicle: saline): 120 % of control
- T/C (dose: 5.06 mg/kg/injection, schedule: Q01DX Z (ip), vehicle: carboxymethylcellulose (CMC)): 117 % of control
- T/C (dose: 6.0 mg/kg/injection, schedule: Q01DX Z (ip), vehicle: carboxymethylcellulose (CMC)): 158 % of control
- T/C (dose: 6.33 mg/kg/injection, schedule: Q01DX Z (ip), vehicle: carboxymethylcellulose (CMC)): 124 % of control
- T/C (dose: 7.5 mg/kg/injection, schedule: Q03DX006 (ip), vehicle: saline): 119 % of control
- T/C (dose: 8.7 mg/kg/injection, schedule: Q01DX001 (ip), vehicle: saline): 108 % of control
- T/C (dose: 8.7 mg/kg/injection, schedule: Q07DX003 (ip), vehicle: saline): 105 % of control
- T/C (dose: 8.75 mg/kg/injection, schedule: Q01DX001 (ip), vehicle: saline): 113 % of control and 123 % of control
- T/C (dose: 9.5 mg/kg/injection, schedule: Q01DX Z (ip), vehicle: carboxymethylcellulose (CMC)): 157 % of control
- T/C (dose: 10.0 mg/kg/injection, schedule: Q01DX006 (iv), vehicle: saline): 105 % of control
- T/C (dose: 10.0 mg/kg/injection, schedule: Q01DX Z (im), vehicle: saline): 160 % of control
- T/C (dose: 10.0 mg/kg/injection, schedule: Q01DX Z (ip), vehicle: saline): 195 % of control
- T/C (dose: 10.0 mg/kg/injection, schedule: Q01DX Z (oral), vehicle: saline): 115 % of control
- T/C (dose: 10.0 mg/kg/injection, schedule: Q#A X Z (ip), vehicle: saline): 110 % of control
- T/C (dose: 12.0 mg/kg/injection, schedule: Q01DX Z (ip), vehicle: carboxymethylcellulose (CMC)): 115 % of control
- T/C (dose: 12.66 mg/kg/injection, schedule: Q01DX Z (ip), vehicle: carboxymethylcellulose (CMC)): 152 % of control
- T/C (dose: 15.0 mg/kg/injection, schedule: Q03DX007 (ip), vehicle: saline): 182 % of control
- T/C (dose: 20.0 mg/kg/injection, schedule: Q01DX006 (iv), vehicle: saline): 117 % of control
- T/C (dose: 20.0 mg/kg/injection, schedule: Q01DX Z (im), vehicle: saline): 152 % of control
- T/C (dose: 20.0 mg/kg/injection, schedule: Q01DX Z (sc), vehicle: saline): 175 % of control
- T/C (dose: 24.0 mg/kg/injection, schedule: Q01DX Z (ip), vehicle: carboxymethylcellulose (CMC)): 94 % of control and 102 % of control
- T/C (dose: 30.0 mg/kg/injection, schedule: Q03DX007 (ip), vehicle: saline): 165 % of control
- T/C (dose: 38.0 mg/kg/injection, schedule: Q01DX Z (ip), vehicle: carboxymethylcellulose (CMC)): 94 % of control
- T/C (dose: 40.0 mg/kg/injection, schedule: Q01DX Z (im), vehicle: saline): 94 % of control
- T/C (dose: 40.0 mg/kg/injection, schedule: Q01DX Z (ip), vehicle: saline): 103 % of control
- T/C (dose: 40.0 mg/kg/injection, schedule: Q01DX Z (oral), vehicle: saline): 155 % of control
- T/C (dose: 70.0 mg/kg/injection, schedule: Q07DX001 (ip), vehicle: saline): 115 % of control
- T/C (dose: 80.0 mg/kg/injection, schedule: Q01DX Z (sc), vehicle: saline): 111 % of control
- T/C (dose: 280.0 mg/kg/injection, schedule: Q01DX001 (ip), vehicle: saline): 105 % of control

Structure (SMILES): COc1ccc(OC)c(C(=O)CCCCCCCCC(=O)O)c1
- T/C (dose: 100.0 mg/kg/injection, schedule: Q04DX003 (ip), vehicle: Klucel (hydroxypropylcellulose) (HPC)): 109 % of control
- T/C (dose: 200.0 mg/kg/injection, schedule: Q04DX003 (ip), vehicle: Klucel (hydroxypropylcellulose) (HPC)): 95 % of control
- T/C (dose: 400.0 mg/kg/injection, schedule: Q04DX003 (ip), vehicle: Klucel (hydroxypropylcellulose) (HPC)): 101 % of control

Structure (SMILES): CSc1nc(N)nc2c1ncn2C1OC(CO)CC1O (configuration not stated)
- T/C (dose: 100.0 mg/kg/injection, schedule: Q01DX001 (ip), vehicle: saline): 107 % of control
- T/C (dose: 200.0 mg/kg/injection, schedule: Q01DX001 (ip), vehicle: saline): 104 % of control
- T/C (dose: 400.0 mg/kg/injection, schedule: Q01DX001 (ip), vehicle: saline): 115 % of control

Structure (SMILES): O=c1[nH]nnc2c1cnn2-c1ccccc1
- T/C [1]: 101 % of control
- T/C [2]: 97 % of control

Structure (SMILES): O=C(O)c1cccc(SSc2cccc(C(=O)O)c2)c1
- T/C [1]: 94 % of control
- T/C [2]: 100 % of control
- T/C (dose: 400.0 mg/kg/injection, schedule: Q01DX001 (ip), vehicle: carboxymethylcellulose (CMC)): 102 % of control

Structure (SMILES): CCC/C(=N\Nc1ccc([N+](=O)[O-])cc1[N+](=O)[O-])c1ccccc1
- T/C (dose: 100.0 mg/kg/injection, schedule: Q04DX003 (ip), vehicle: saline with Tween-80): 91 % of control
- T/C (dose: 400.0 mg/kg/injection, schedule: Q04DX003 (ip), vehicle: saline with Tween-80): 86 % of control

Structure (SMILES): COc1cc(/C=N/N)cc(OC)c1OC
- T/C (dose: 25.0 mg/kg/injection, schedule: Q04DX002 (ip), vehicle: Klucel (hydroxypropylcellulose) (HPC)): 117 % of control
- T/C (dose: 50.0 mg/kg/injection, schedule: Q04DX002 (ip), vehicle: Klucel (hydroxypropylcellulose) (HPC)): 117 % of control
- T/C (dose: 100.0 mg/kg/injection, schedule: Q04DX002 (ip), vehicle: Klucel (hydroxypropylcellulose) (HPC)): 98 % of control and 109 % of control
